Experimental data taken from patent US20230105693A1, “ANTIMICROBIAL COMPOSITIONS” (Firmenich SA, priority 2020, published 2023).
Like-named read-outs stand apart in the source and are kept apart here.

Key:
[1] = tested on: E. coli ATCC 10536; assay: Bacterial contact time (BCT) test of perfume ingredients in 20% ethanol solution (EN-1276 based); format: cell-based, Escherichia coli; details: 20% EtOH, 45 s
Method: Bacterial suspensions of E. coli ATCC 10536 were prepared for antimicrobial testing as follows. Stock cultures stored at -80° C. were sub-cultured onto Tryptic Soy Agar (TSA) plate, and incubated at 37° C. for 24 h to obtain single colonies. Single colonies of the primary cultures were streaked onto TSA plates and incubated at 37° C. for 24 h to prepare the secondary cultures. Single colonies of secondary cultures were inoculated into 50 mL of Tryptic Soy broth (TSB), incubated at 37° C. 180 rpm for 18 h. Aliquots (0.5 ml) of the 18 h culture were inoculated into 50 ml of fresh TSB, and incubated at 37° C. 180 rpm for 2- 3 hours. When the OD600 nm value of the broth reached 1-2, cells were harvested by centrifugation at 5,000 rpm for 10 min, and then resuspended in the same fresh broth media to achieve the target level of 1-5 × 10^8 colony forming unit (CFU)/mL. This suspension was used for further antimicrobial tests.
Unless indicated otherwise, log reduction testing according to the present invention is determined in accordance with the following method.
Bacterial contact time (BCT) test based on European standard EN-1276 was used to determine dose dependent bactericidal activity of perfume ingredients in 20% ethanol solutions.
Perfume ingredients of various concentrations (doses) were prepared in 40% ethanol solutions. Eleven replicates of each sample were added into 96-well microtiter plates (120 µl per well) in column 1-11 of one row, with row B as the control sample of the ethanol solution. Then, 120 µl of cell suspension at a concentration of approximately 1-5 × 10^8 CFU/ML (as prepared above) were added to each well of the microtiter plate. A specified contact time (45 s) was allowed for target bacterial strains. At the end of the contact time, serial dilutions were prepared in 96 well plates with growth media: 3 times of 1 in 10 dilutions and followed by 17 times of 1 in 2 dilutions. Each plate was sealed and incubated at 37° C. under agitation (180 rpm). After incubation, turbidity of the wells (OD 600 nm) was recorded by Tecan microplate reader. Turbid cells were regarded as positive growth of viable cells. The total number of viable cells (log CFU/mL) for each sample was calculated. And the log reduction for each test composition at the final concentration (dose) was calculated against the control sample of the 20% ethanol solution.
Table 20 show the bactericidal dose related effect (log reduction) and calculated effect fraction of the Mixture C and compositions against E. coli ATCC 10536. Stock of compositions were prepared in 100% ethanol, then diluted in MilliQ water to obtain 2 × final concentration in 40% ethanol. BCT tests were conducted on samples against E. coli for a contact time of 45 s.

[2] = physchem; format: physicochemical
Method: The partition coefficient (P) is defined as the ratio of the concentrations (C) to the equilibrium of a dissolved and highly diluted substance in a biphasic system consisting of two almost immiscible solvents.
In the case of n-octanol and water:
The partition coefficient P is the quotient of two concentrations, it is generally indicated in its logarithmic form, base 10 (LogP).
The log P values of different perfume ingredients were measured using standard high performance liquid chromatography method, according to the reference (OECD, guideline No. 117, adopted on 13 Apr. 2004, Partition coefficient (n-octanol-water), High Performance Liquid Chromatography (HPLC) Method).

[3] = Equivalent alkane carbon number (EACN) in model microemulsion system; format: physicochemical; details: C10E5/water/isopropyl myristate model system, 3% wt perfume ingredient
Method: EACN values provide information on polarity and surface activity of apolar ingredients. Tchakalova and Fieber (J. of Surfactants and Detergents, 2012, 15(2):167-177) classified perfume ingredients based on values of EACNmix, the EACN of a mixture consisting of a test perfume ingredient and a reference oil (isopropyl myristate). The same model system and method were used to measure the EACN values of perfume ingredients with antimicrobial activities. Different perfume ingredients were added to the model microemulsion system shown in Table 1, in which the nonionic pentaethylene glycol mono n-decyl ether (C10E5) was used as surfactant. Phase transition temperatures of the system from Winsor I to Winsor III, and from Winsor III to Winsor II were determined using a water bath. Alkanes with different alkane carbon numbers (octane, decane, dodecane and hexadecane) were used to establish a linear correlation curve between EACN and the PIT, which is the average of the transitions from Winsor I to Winsor III, and from Winsor III to Winsor II, respectively. EACNmix was then calculated based on the linear relationship and the measured PIT for systems containing different perfume ingredients. The EACN of the pure perfume ingredient was calculated based on the molar ratio of the tested PRMs in the oil phase using following equation: […]
wherein n and nref are the molar fractions of tested perfume ingredient and the reference ingredient (i.e., isopropyl myristate) in the oil phase, respectively.

[4] = tested on: Escherichia coli ATCC 10536; assay: Robotic BCT test of perfume ingredients in model surfactant bases; format: cell-based; details: for log reduction at 0.5 %: Escherichia coli, ATCC10536, 45 s, read-out: Log reduction in Base 1 (Log CFU/mL)
Method: The surfactant bases tested included 1) sodium lauryl ether sulfate (SLES) and cocamidopropyl betaine (CAPB) at 3:1 mass ratios; 2) SLES, CAPB and coco-glucoside at 2:1:1 mass ratios. Test samples were prepared by mixing perfume ingredients with the surfactant bases and vigorously stirred for 24 hrs. Concentration of perfume ingredients in the bases was 0.5% wt. Samples with transparent appearance were selected for antimicrobial testing.
Antimicrobial efficacy was tested against a representative Gram-negative bacterial strain, Escherichia coli ATCC 10536, using robotic bacteria contact time (BCT) test based on European standard EN-1276 and EP2787827(B1).
Preparation of screening plate and dilution plate: Aliquots (270 µl) of compositions were dispensed into the wells of a 96-well microtiter plate (MTP) along two columns (B1-H1, and B7-H7), and 270 µl of MilliQ water was added to well A1 and A7 as the control samples. This MTP was labelled as the “Screening plate”. In another MTP, labelled as the “Dilution plate”, 270 µL of Dey-Engley (D/E) neutralizing solution was added to column 1 and column 7. 270 µl of tryptone diluent solution was added to columns 2-6 and columns 8-12 of the Dilution MTP by a Hamilton robotic liquid handling station.
BCT test & neutralization & dilution: Bacterial stock (30 µl) was then added to columns 1 of the ‘Screening plate’ and mixed by a Hamilton robotic liquid handling station. After a contact time of 45 seconds, 30 µl of the mixtures in column 1 were transferred into the corresponding wells of column 1 of the ‘Dilution plate’. After neutralizing for 5 minutes in the D/E neutralizing solution, 30 µl of the neutralized mixtures were transferred from column 1 to column 2 of the Dilution MTP and mixed, followed by transferring 30 µl of the mixtures from column 2 into column 3. This process was repeated serially diluting the bacteria suspensions across the plate to column 6. Bacterial stock (30 µl) was then added to columns 7 of the ‘Screening plate’ and mixed by a Hamilton robotic liquid handling station. After a contact time of 45 seconds, 30 µl of the mixtures in column 7 were transferred into the corresponding wells of column 7 of the ‘Dilution plate’. After neutralizing for 5 minutes in the D/E neutralizing solution, 30 µl of the mixtures were transferred from column 7 to column 8 of the Dilution MTP and mixed, followed by transferring further 30 µl mixtures from column 8 into column 9. This process was repeated serially diluting the bacteria suspensions across the plate to column 12.
Plating: 30 µl volumes from each well in the Dilution MTP were transferred onto four Tryptone Soya Agar (TSA) plates. The TSA plates were allowed to stand for about two hours so that the 30 µl inocula spots could dry and the plates were then inverted and incubated overnight at 37° C. for 24 hours. After incubation, colonies were counted.
Calculating log reduction: Select the dilutions with colony counts, and calculate the viable cell counts (CFU/mL) of mixture in ‘Screening plate’, and log reduction against the control MilliQ sample was calculated.

[5] = 0.5% perfume ingredient, Base 1: SLES 1.875%, CAPB 0.625%, contact 45 s
[6] = model base 1, table by functional group
[7] = n-octanol/water, HPLC method, read-out: Log P

SMILES	chromatographic logP [2]	EACN [3]	log reduction at 0.5 % [4, 5]	log reduction at 0.5 % [4, 6]	chromatographic logP [2, 7]	further results
Cc1ccc(C(C)C)c(O)c1 [2-isopropyl-5-methylphenol]	2.57	-43.68	> 5.5	> 5.5	–	Effect fraction ([1]; dose 0.025% w/v): 0.120; Log reduction ([1]; dose 0.025% w/v): 0.887; Effect fraction ([1]; dose 0.030% w/v): 0.300; Log reduction ([1]; dose 0.030% w/v): 2.140; Effect fraction ([1]; dose 0.035% w/v): 0.470; Log reduction ([1]; dose 0.035% w/v): 3.344; Effect fraction ([1]; dose 0.040% w/v): 0.690; Log reduction ([1]; dose 0.040% w/v): 4.987; Effect fraction ([1]; dose 0.045% w/v): 0.890; Log reduction ([1]; dose 0.045% w/v): 6.387
CC(C)(O)CCc1ccccc1 [2-methyl-4-phenyl-2-butanol]	–	-24.94	-0.4	–	2.69	–
CCCc1cccc(O)c1 [3-propylphenol]	–	<-29.09	> 5.5	> 5.5	2.1	–
CC(C)c1ccc(CO)cc1 [4-isopropyl-1-benzenemethanol]	2.23	-36.04	1.3	–	–	–
Cc1ccc(C(C)C)cc1O [5-isopropyl-2-methylphenol]	–	-43.89	–	–	2.52	Effect fraction ([1]; dose 0.030% w/v): 0.090; Log reduction ([1]; dose 0.030% w/v): 0.660; Effect fraction ([1]; dose 0.035% w/v): 0.250; Log reduction ([1]; dose 0.035% w/v): 1.812; Effect fraction ([1]; dose 0.040% w/v): 0.610; Log reduction ([1]; dose 0.040% w/v): 4.379; Effect fraction ([1]; dose 0.045% w/v): 0.830; Log reduction ([1]; dose 0.045% w/v): 5.960; Effect fraction ([1]; dose 0.050% w/v): 0.970; Log reduction ([1]; dose 0.050% w/v): 6.960; log reduction at 0.5 % [4]: 5.3; Log reduction in Base 1 (Log CFU/mL) [4, 6]: 5.3 Log CFU/mL
O=C/C=C/c1ccccc1 [(E)-3-Phenyl-2-propenal]	1.5	-13.35	> 3	5.1	–	–
c1ccc2[nH]ccc2c1 [indole]	–	<-24.93	–	–	1.74	log reduction at 0.5 % [4]: 1.9

The next lines start with results.

chromatographic logP [2]	EACN [3]	SMILES	log reduction at 0.5 % [4, 5]	log reduction at 0.5 % [4, 6]	chromatographic logP [2, 7]	further results
1.52	<-21.95	Cc1ccc(O)cc1 [4-methylphenol]	0.1	–	–	–
1.73	-21.91	CCC/C=C/CO [(2E)-2-hexen-1-ol]	-0.2	–	–	–
2.56	-12.17	C/C(C=O)=C\c1ccccc1 [(2E)-2-methyl-3-phenyl-2-propenal]	–	3.7	–	–
1.79	< -28.19	OC/C=C/c1ccccc1 [(2E)-3-phenyl-2-propen-1-ol]	0.1	–	–	–
–	-30.83	C=C(C)[C@@H]1CC=C(CO)CC1 [(-)-(S)-1,8-P-menthadien-7-ol]	–	–	–	Log P [2]: 2.68; Log reduction in Base 1 (Log CFU/mL) [4, 5]: 4.2 ± 0.1 Log CFU/mL; Log reduction (Log CFU/mL) Base 2 ([4]; 0.5% perfume ingredient, Base 2: SLES 2.25%, CAPB 0.75%, contact 45 s): 0 Log CFU/mL; Log reduction (Log CFU/mL) Base 3 ([4]; 0.5% perfume ingredient, Base 3: SLES 1.5%, CAPB 0.75%, coco-glucoside 0.75%, contact 45 s): 1.4 Log CFU/mL; Log reduction (Log CFU/mL) Base 4 ([4]; 0.5% perfume ingredient, Base 4: SLES 2.25%, CAPB 0.75%, sodium xylene sulfonate 3%, contact 45 s): 2.2 Log CFU/mL; Log reduction in Base 1 (Log CFU/mL) [4, 6]: 4.2 Log CFU/mL
